In ChEMBL document CHEMBL3739317, “Design of new phenothiazine-thiadiazole hybrids via molecular hybridization approach for the development of potent antitubercular agents” (Eur J Med Chem, 2015):
In brackets after ≈: the same amount, converted by molar mass. Activity calls are given as the source filed them. The rule behind the calls is not given here.

How the values were obtained:
Vero = assay: Cytotoxicity against African green monkey Vero cells after 72 hrs by MTT assay; type: cell-based; details: Chlorocebus sabaeus
[1] = Selectivity index, ratio of IC50 for African green monkey Vero cells to MIC for Mycobacterium tuberculosis H37Rv ATCC 27294; type: toxicity, cell-based
[2] = system: Mycobacterium tuberculosis; assay: Antimycobacterial activity against Mycobacterium tuberculosis H37Rv ATCC 27294 after 5 days by microplate alamar blue assay; type: functional; details: H37Rv ATCC 27294, 120 h
Escherichia coli [3] = assay: Antibacterial activity against Escherichia coli at 75 ug/ml after 18 to 24 hrs by disc diffusion method; type: functional; details: read-out: IZ
Escherichia coli [4] = assay: Antibacterial activity against Escherichia coli at 50 ug/ml after 18 to 24 hrs by disc diffusion method; type: functional; details: read-out: IZ
Staphylococcus aureus [5] = assay: Antibacterial activity against Staphylococcus aureus at 75 ug/ml after 18 to 24 hrs by disc diffusion method; type: functional; details: for zone of inhibition at 75 µg/mL: read-out: IZ
Staphylococcus aureus [6] = assay: Antibacterial activity against Staphylococcus aureus at 50 ug/ml after 18 to 24 hrs by disc diffusion method; type: functional; details: for zone of inhibition at 50 µg/mL: read-out: IZ
Pseudomonas aeruginosa [7] = assay: Antibacterial activity against Pseudomonas aeruginosa at 75 ug/ml after 18 to 24 hrs by disc diffusion method; type: functional; details: read-out: IZ
Pseudomonas aeruginosa [8] = assay: Antibacterial activity against Pseudomonas aeruginosa at 50 ug/ml after 18 to 24 hrs by disc diffusion method; type: functional; details: read-out: IZ

SMILES | IC50 (Vero) [µg/mL] | selectivity ratio [1] | MIC [2] [µg/mL] | zone of inhibition at 75 µg/mL (Escherichia coli [3]) [mm] | zone of inhibition at 50 µg/mL (Escherichia coli [4]) [mm] | zone of inhibition at 75 µg/mL (Staphylococcus aureus [5]) [mm] | zone of inhibition at 50 µg/mL (Staphylococcus aureus [6]) [mm] | zone of inhibition at 75 µg/mL (Pseudomonas aeruginosa [7]) [mm] | zone of inhibition at 50 µg/mL (Pseudomonas aeruginosa [8]) [mm] | inhibition zone (IZ) (Staphylococcus aureus [5]) | inhibition zone (IZ) (Staphylococcus aureus [6])
CCCc1nn(CC(=O)N2c3ccccc3Sc3ccc(Cl)cc32)c(=N)s1 | 245 (≈ 588 µM) | 306 | 0.8 (≈ 1.92 µM) | 12 | 8 | 10 | 8 | 12 | 10 |  | 
Cc1ccc(-c2nn(CC(=O)N3c4ccccc4Sc4ccc(Cl)cc43)c(=N)s2)cc1 |  |  | 50 (≈ 108 µM) | 9 | 7 | 12 | 10 | 7 | 4 |  | 
N=c1sc(-c2ccc(F)cc2)nn1CC(=O)N1c2ccccc2Sc2ccc(C(F)(F)F)cc21 | 733 (≈ 1460 µM) | 458 | 1.6 (≈ 3.18 µM) | 11 | 9 | 10 | 7 | 13 | 7 |  | 
N=c1sc(-c2ccc(Cl)cc2)nn1CC(=O)N1c2ccccc2Sc2ccc(Cl)cc21 | 757 (≈ 1560 µM) | 473 | 1.6 (≈ 3.3 µM) | 15 | 12 | 17 | 15 | 20 | 15 |  | 
Cc1nn(CC(=O)N2c3ccccc3Sc3ccccc32)c(=N)s1 | 433 (≈ 1220 µM) | 271 | 1.6 (≈ 4.51 µM) | 25 | 20 | 26 | 22 | 25 | 20 |  | 
N=c1sc(-c2ccc(Cl)cc2)nn1CC(=O)N1c2ccccc2Sc2ccccc21 |  |  | 50 (≈ 111 µM) | 10 | 8 | 9 | 7 | 10 | 7 |  | 
N=c1sc(-c2cccs2)nn1CC(=O)N1c2ccccc2Sc2ccc(Cl)cc21 |  |  | 50 (≈ 109 µM) | 8 | 4 |  |  | 11 | 7 | inactive | inactive
Cc1ccc(-c2nn(CC(=O)N3c4ccccc4Sc4ccccc43)c(=N)s2)cc1 | 215 (≈ 499 µM) | 269 | 0.8 (≈ 1.86 µM) | 27 | 24 | 21 | 16 | 11 | 9 |  | 
CCCc1nn(CC(=O)N2c3ccccc3Sc3ccccc32)c(=N)s1 | 252 (≈ 658 µM) | 157 | 1.6 (≈ 4.18 µM) | 14 | 11 | 16 | 12 | 15 | 11 |  | 
N=c1sc(-c2ccc(F)cc2)nn1CC(=O)N1c2ccccc2Sc2ccc(Cl)cc21 | 465 (≈ 992 µM) | 149 | 3.12 (≈ 6.66 µM) | 12 | 7 | 9 | 5 | 10 | 7 |  | 
Cc1nn(CC(=O)N2c3ccccc3Sc3ccc(C(F)(F)F)cc32)c(=N)s1 | 350 (≈ 828 µM) | 219 | 1.6 (≈ 3.79 µM) | 20 | 15 | 17 | 14 | 15 | 12 |  | 
NNC(=O)c1ccncc1 [ISONIAZID] |  |  | 0.1 (≈ 0.729 µM) |  |  |  |  |  |  |  | 
O=C(O)c1cn(C2CC2)c2cc(N3CCNCC3)c(F)cc2c1=O [CIPROFLOXACIN] |  |  | 3.12 (≈ 9.43 µM) | 32 | 27 | 26 | 21 | 21 | 18 |  | 
N=c1sc(-c2cccs2)nn1CC(=O)N1c2ccccc2Sc2ccccc21 |  |  | 50 (≈ 118 µM) | 7 | 6 |  |  | 4 | 2 | inactive | inactive
N=c1sc(-c2ccc(Cl)cc2)nn1CC(=O)N1c2ccccc2Sc2ccc(C(F)(F)F)cc21 |  |  | 25 (≈ 48.2 µM) | 12 | 11 | 13 | 11 | 14 | 9 |  | 
N=c1sc(-c2cccs2)nn1CC(=O)N1c2ccccc2Sc2ccc(C(F)(F)F)cc21 |  |  | 50 (≈ 102 µM) | 10 | 8 | 8 | 5 | 12 | 8 |  | 
COc1ccc(-c2nn(CC(=O)N3c4ccccc4Sc4ccccc43)c(=N)s2)cc1OC |  |  | 12.5 (≈ 26.2 µM) | 16 | 13 | 21 | 18 | 25 | 20 |  | 
COc1ccc(-c2nn(CC(=O)N3c4ccccc4Sc4ccc(C(F)(F)F)cc43)c(=N)s2)cc1OC |  |  | 50 (≈ 91.8 µM) | 10 | 8 | 7 | 4 | 9 | 6 |  | 
Cc1ccc(-c2nn(CC(=O)N3c4ccccc4Sc4ccc(C(F)(F)F)cc43)c(=N)s2)cc1 |  |  | 50 (≈ 100 µM) | 13 | 11 | 11 | 9 | 9 | 6 |  | 
CCCc1nn(CC(=O)N2c3ccccc3Sc3ccc(C(F)(F)F)cc32)c(=N)s1 | 238 (≈ 529 µM) | 76.4 | 3.12 (≈ 6.94 µM) | 9 | 6 | 11 | 7 | 7 | 3 |  | 
COc1ccc(-c2nn(CC(=O)N3c4ccccc4Sc4ccc(Cl)cc43)c(=N)s2)cc1OC |  |  | 50 (≈ 97.8 µM) | 8 | 4 | 8 | 6 | 6 | 4 |  | 
CN[C@@H]1[C@H](O[C@H]2[C@H](O[C@H]3[C@H](O)[C@@H](O)[C@H](N=C(N)N)[C@@H](O)[C@@H]3N=C(N)N)O[C@@H](C)[C@]2(O)C=O)O[C@@H](CO)[C@H](O)[C@H]1O [STREPTOMYCIN] |  |  | 6.25 (≈ 10.7 µM) |  |  |  |  |  |  |  | 
CC[C@@H](CO)NCCN[C@@H](CC)CO [ETHAMBUTOL] |  |  | 3.12 (≈ 15.3 µM) |  |  |  |  |  |  |  | 
